Data from patent US10723706B2, “Perk inhibitors and uses thereof in treating diseases associated with aggregation-prone proteins” (Ramot at Tel-Aviv University Ltd., priority 2016, dated 2020).

How the values were obtained:
[1] = Weight evaluation after pump implantation; format: in vivo, mouse; settings: TG and WT mice, 7 weeks after pump implantation, 1 mg/kg for 28 days
Description: For the therapeutic assessment of MK-28 delivery, Alzet pumps model 1004, with a rate of 0.11 μl/hour and 28 days compound delivery were used. Five groups of mice were studied: (1) Transgenic (TG) treated with MK-28, (2) TG without treatment (pumps with vehicle), (3) Wild-type (WT) treated with MK-28, (4) WT without treatment (pumps with vehicle), (5) WT without pumps.
(§1) Alzet pumps were implanted at 4 weeks of age and MK-28 was administered at 1 mg/kg with continuous dosing for 28 days. This concentration is in a typical clinical dose range. The mice's motor function and coordination were tested by Rotarod, and limb clasping, ledge, gait and kyphosis were also tested. Vocalization tests were also performed and survival was assessed. Tests were performed in two independent blind experiments.

R6/2 transgenic mice = experiment: Survival of R6/2 mice; format: in vivo, mouse
Description: Animals were treated as described in FIGS. 7-9. Transgenic mice receiving MK-28 (blue) or vehicle (red) were analyzed for mice survival (n=13/group). Gehan-Breslow-Wilcoxon Test for comparisons of Kaplan-Meier survival curves indicated a significant increase in the survival of MK-28 treated mice compared to untreated littermates (median survival 97 and 89 days, respectively, p=0.0469). Ratio 1.887, 95% CI of ratio 0.7726 to 4.611.
as §1

[2] = test system: betaTC-tet pancreatic islet beta-cell line; experiment: Toxicity in pancreatic beta cells; format: cell-based, mouse
Description: MK-28 toxicity was tested in pancreatic beta cells, the type of cell that is most sensitive when ER stress response pathways are affected. A conditionally transformed mouse pancreatic islet beta-cell line (betaTC-tet), such as described by Efrat [Ann NY Acad Sci 1999, 875:286-293], was used. These cells produce high amounts of insulin, resulting in a high protein load in the ER, making them very sensitive to ER stress and other stimuli, such as cytokine effects. Compromising any of the UPR branches leads to cytotoxicity in these cells. MK-28 was compared to the ER stressor tunicamycin (Tun).

STHdhQ111/111 cells = experiment: Rescue of cells incubated in DMEM without serum and without Tun, PI cell cycle FACS; format: cell-based, murine; settings: 48 hours in DMEM without serum and without Tun
Description: STHdhQ7/7 and STHdhQ111/111 cells were grown as described in Leitman et al. [PLoS One 2014, 9(3):e90803].
After the indicated treatment times in full medium or in DMEM without serum, cells were incubated with propidium iodide (PI) solution ([…]) and read by flow cytometry as described in Leitman et al. [PLoS One 2014, 9(3):e90803]. Cells in sub-G0/G1 were counted as apoptotic/dead cells.
The activity of the novel inhibitors, compared to A4, in preventing cytotoxicity induced by pathogenic Htt, was then tested. A stable murine striatal cell line expressing full-length polyQ-expanded Htt, STHdhQ^111/111, was used.

wild type (WT) mice = experiment: Toxicity in wild type mice, continuous subcutaneous dosing by Alzet pump; format: in vivo, mouse; settings: 6 mg/kg for 2 weeks

CN(/N=C\c1ccc(O)c(O)c1)c1nc(-c2ccccc2)cc(-c2ccccc2)n1 [Compound 3, 2-{N-methyl-N′-(3,4-dihydroxybenzylidene)hydrazinyl}-4,6-diphenylpyrimidine]
weight versus vehicle [1]: no significant differences | delay of death initiation versus vehicle (R6/2 transgenic mice; R6/2 TG mice): ~10 days | increase in median survival versus untreated TG (R6/2 transgenic mice; R6/2 TG mice): 8 days | median survival (R6/2 transgenic mice; R6/2 TG mice treated age weeks 4 to 8, n=13/group, p=0.0469): 97 days | Ratio, comparison of Kaplan-Meier survival curves (R6/2 transgenic mice; R6/2 TG mice, 95% CI of ratio 0.7726 to 4.611): 1.887 | toxicity in pancreatic beta cells [2]: very low toxicity | protective (rescue) effect without ER stressor (STHdhQ111/111 cells): strong protective effect, in the low micromolar range | protective (rescue) effect without ER stressor (STHdhQ111/111 cells; listed as MK-28): strong rescue effect | toxic effects in WT mice (wild type (WT) mice): no toxic effects were observed
